Drawing on ChEMBL document CHEMBL2010642, “Trichostatin analogues JBIR-109, JBIR-110, and JBIR-111 from the marine sponge-derived Streptomyces sp. RM72” (J Nat Prod, 2012), this text covers IC50 for four compounds.

SMILES strings stand for the structures.

Usually IC50 stands for the midpoint of a concentration-inhibition curve.

Chain of Histone deacetylase 1 (Q13547 whole entry): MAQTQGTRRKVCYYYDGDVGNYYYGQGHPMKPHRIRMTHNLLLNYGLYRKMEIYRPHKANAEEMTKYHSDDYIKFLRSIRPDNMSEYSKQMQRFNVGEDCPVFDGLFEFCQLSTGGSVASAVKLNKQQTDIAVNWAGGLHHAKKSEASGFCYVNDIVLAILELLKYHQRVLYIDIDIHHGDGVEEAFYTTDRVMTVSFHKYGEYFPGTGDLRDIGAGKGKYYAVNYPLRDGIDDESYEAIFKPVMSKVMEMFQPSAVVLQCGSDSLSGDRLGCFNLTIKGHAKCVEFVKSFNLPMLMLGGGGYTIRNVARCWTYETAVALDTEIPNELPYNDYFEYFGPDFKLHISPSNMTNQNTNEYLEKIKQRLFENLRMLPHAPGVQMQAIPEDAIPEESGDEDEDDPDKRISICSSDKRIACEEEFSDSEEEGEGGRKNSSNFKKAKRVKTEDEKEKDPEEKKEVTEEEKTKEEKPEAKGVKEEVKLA

The experiment addresses Histone deacetylase 1 (Homo sapiens, UniProt Q13547). Kind of experiment: Inhibition of human HDAC1 after 30 mins by fluorescence assay.
With `CC(/C=C/C(=O)N[C@@H](CCC(=O)O)C(=O)O)=C\[C@@H](C)C(=O)c1ccc(N(C)C)cc1`, the half-maximal inhibitory concentration (IC50) turned out to be 48 µM.
In the case of `CC(/C=C/C(=O)NCCS(=O)(=O)O)=C\[C@@H](C)C(=O)c1ccc(N(C)C)cc1`, the IC50 came to 74 µM.
As for `CC(/C=C/C(=O)N[C@](C)(CO)C(=O)O)=C\[C@@H](C)C(=O)c1ccc(N(C)C)cc1`, the figure is 57 µM; as for `CC(/C=C/C(=O)O)=C\[C@@H](C)C(=O)c1ccc(N(C)C)cc1` [TRICHOSTATIC ACID], 73 µM.
